Measurements published in patent US4725683A, “Fluorophenoxyphenoxypropionates and derivatives thereof” (The Dow Chemical Company, priority 1985, dated 1988).

Assays:
Assay in all cases: Selective postemergence, track sprayer
Assay type in all cases: in vivo
Annual Bluegrass = tested on: Annual Bluegrass
Method: (§1) Representative compositions of the present invention were evaluated for the postemergence control of species of plants listed in Table A. In these evaluations, pots of the plant species listed in Table A, grown to a height of about 10 cms, were used. Aqueous spray compositions, containing various amounts of 2-[4-(2-fluoro-4-trifluoromethylphenoxy)-phenoxy]propionic acid methy ester, i.e., 125 ppm, 62.5 ppm, 31.25 ppm, 15.6 ppm, 7.8 ppm and 3.9 ppm, respectively, were applied to separate pots. The spray compositions were made by mixing the active ingredient in acetone to 1/2 the final volume, i.e., twice the final concentration. An equal amount of water was added to the active ingredient/acetone mixture wherein the water contained 0.1 percent by weight of TWEEN® 200 surfactant. The application to the plants was made to the point of run-off and was carried out with conventional spraying equipment. Other pots were sprayed with similar compositions containing no toxicant to serve as controls. Thereafter, the pots were maintained under conditions conducive for plant growth. Two weeks after treatment, the pots were examined for plant growth and evaluated on a scale of 0 to 100 where 0 represents no effect and 100 represents complete kill. The results of the examination of the treated pots are set forth below in Table A.
(§2) To further define the selective postemergence herbicidal characteristics of compounds of the present invention, chemicals were applied to additional species of grasses as listed in Table F. Chemicals evaluated were 2-[4-(4-bromo-2-fluorophenoxy)phenoxy]propionic acid methyl ester and its R isomer. Treatment conditions were similar to those described in Example A except that chemicals were delivered through a track sprayer set to deliver the appropriate dosages in 280.6 L/hectare of water containing 0.1% Tween-20 surfactant.

Crabgrass = tested on: Crabgrass
Method: as §1, §2

Wild Proso Millet = tested on: Wild Proso Millet
Method: as §1, §2

Johnsongrass = tested on: Johnsongrass
Method: as §1, §2

Wheat = tested on: Wheat
Method: as §1, §2

Goosegrass = tested on: Goosegrass
Method: as §1, §2

Green Foxtail = tested on: Green Foxtail
Method: as §1, §2

Cheatgrass = tested on: Cheatgrass
Method: as §1, §2

Fall Panicum = tested on: Fall Panicum
Method: as §1, §2

Wild Oats = tested on: Wild Oats
Method: as §1, §2

Barnyardgrass = tested on: Barnyardgrass
Method: as §1, §2

Downey Brome = tested on: Downey Brome
Method: as §1, §2

Measured: Percent Control

COC(=O)C(C)Oc1ccc(Oc2ccc(Br)cc2F)cc1 (racemic) [Example 4-Bromo-, 2-[4-(4-bromo-2-fluorophenoxy)phenoxy]propionic acid methyl ester]
40%: Wheat; 0.28 kgs/hectare | Wild Oats; 0.035 kgs/hectare | Wild Oats; 0.07 kgs/hectare | Barnyardgrass; 0.0011 kgs/hectare
100%: Crabgrass; 0.035 kgs/hectare | Crabgrass; 0.07 kgs/hectare | Crabgrass; 0.14 kgs/hectare | Crabgrass; 0.28 kgs/hectare | Crabgrass; 0.56 kgs/hectare | Wild Proso Millet; 0.035 kgs/hectare | Wild Proso Millet; 0.07 kgs/hectare | Wild Proso Millet; 0.14 kgs/hectare | Wild Proso Millet; 0.28 kgs/hectare | Wild Proso Millet; 0.56 kgs/hectare | Goosegrass; 0.07 kgs/hectare | Goosegrass; 0.14 kgs/hectare | Goosegrass; 0.28 kgs/hectare | Goosegrass; 0.56 kgs/hectare | Green Foxtail; 0.035 kgs/hectare | Green Foxtail; 0.07 kgs/hectare | Green Foxtail; 0.14 kgs/hectare | Green Foxtail; 0.28 kgs/hectare | Green Foxtail; 0.56 kgs/hectare | Fall Panicum; 0.035 kgs/hectare | Fall Panicum; 0.14 kgs/hectare | Fall Panicum; 0.28 kgs/hectare | Fall Panicum; 0.56 kgs/hectare | Wild Oats; 0.56 kgs/hectare | Barnyardgrass; 0.0045 kgs/hectare | Barnyardgrass; 0.009 kgs/hectare | Barnyardgrass; 0.035 kgs/hectare | Barnyardgrass; 0.07 kgs/hectare | Barnyardgrass; 0.14 kgs/hectare | Barnyardgrass; 0.28 kgs/hectare | Barnyardgrass; 0.56 kgs/hectare
10%: Wheat; 0.14 kgs/hectare
80%: Wild Proso Millet; 0.009 kgs/hectare | Johnsongrass; 0.56 kgs/hectare | Goosegrass; 0.035 kgs/hectare | Fall Panicum; 0.009 kgs/hectare
70%: Wild Proso Millet; 0.0045 kgs/hectare | Wild Oats; 0.14 kgs/hectare | Barnyardgrass; 0.0023 kgs/hectare
90%: Green Foxtail; 0.0045 kgs/hectare | Green Foxtail; 0.009 kgs/hectare | Wild Oats; 0.28 kgs/hectare
0%: Annual Bluegrass; 0.0011 kgs/hectare | Annual Bluegrass; 0.0023 kgs/hectare | Annual Bluegrass; 0.0045 kgs/hectare | Annual Bluegrass; 0.009 kgs/hectare | Annual Bluegrass; 0.018 kgs/hectare | Annual Bluegrass; 0.035 kgs/hectare | Annual Bluegrass; 0.07 kgs/hectare | Annual Bluegrass; 0.14 kgs/hectare | Annual Bluegrass; 0.28 kgs/hectare | Annual Bluegrass; 0.56 kgs/hectare | Crabgrass; 0.0011 kgs/hectare | Crabgrass; 0.0023 kgs/hectare | Johnsongrass; 0.0011 kgs/hectare | Johnsongrass; 0.0023 kgs/hectare | Johnsongrass; 0.0045 kgs/hectare | Johnsongrass; 0.009 kgs/hectare | Johnsongrass; 0.035 kgs/hectare | Johnsongrass; 0.07 kgs/hectare | Wheat; 0.0011 kgs/hectare | Wheat; 0.0023 kgs/hectare | Wheat; 0.0045 kgs/hectare | Wheat; 0.009 kgs/hectare | Wheat; 0.018 kgs/hectare | Wheat; 0.035 kgs/hectare | Wheat; 0.07 kgs/hectare | Goosegrass; 0.0011 kgs/hectare | Goosegrass; 0.0023 kgs/hectare | Green Foxtail; 0.0011 kgs/hectare | Cheatgrass; 0.0011 kgs/hectare | Cheatgrass; 0.0023 kgs/hectare | Cheatgrass; 0.0045 kgs/hectare | Cheatgrass; 0.009 kgs/hectare | Cheatgrass; 0.018 kgs/hectare | Cheatgrass; 0.035 kgs/hectare | Cheatgrass; 0.07 kgs/hectare | Cheatgrass; 0.14 kgs/hectare | Cheatgrass; 0.28 kgs/hectare | Fall Panicum; 0.0011 kgs/hectare | Wild Oats; 0.0011 kgs/hectare | Wild Oats; 0.0023 kgs/hectare | Wild Oats; 0.0045 kgs/hectare | Wild Oats; 0.009 kgs/hectare | Downey Brome; 0.0011 kgs/hectare | Downey Brome; 0.0023 kgs/hectare | Downey Brome; 0.0045 kgs/hectare | Downey Brome; 0.009 kgs/hectare | Downey Brome; 0.018 kgs/hectare | Downey Brome; 0.035 kgs/hectare | Downey Brome; 0.07 kgs/hectare | Downey Brome; 0.14 kgs/hectare | Downey Brome; 0.28 kgs/hectare | Downey Brome; 0.56 kgs/hectare
50%: Crabgrass; 0.0045 kgs/hectare | Crabgrass; 0.009 kgs/hectare | Wheat; 0.56 kgs/hectare | Fall Panicum; 0.0045 kgs/hectare
30%: Johnsongrass; 0.28 kgs/hectare | Goosegrass; 0.0045 kgs/hectare
20%: Wild Proso Millet; 0.0011 kgs/hectare | Wild Proso Millet; 0.0023 kgs/hectare | Johnsongrass; 0.14 kgs/hectare | Goosegrass; 0.009 kgs/hectare | Green Foxtail; 0.0023 kgs/hectare | Cheatgrass; 0.56 kgs/hectare | Fall Panicum; 0.0023 kgs/hectare
